Assay results reported in patent US9321776B2, “Isochromene derivatives as phoshoinositide 3-kinases inhibitors” (CHIESI FARMACEUTICI S.p.A., priority 2013, dated 2016).
pIC50: −log10 of the molar value. Counter-ions that a name gives are not always drawn.

How the values were obtained:
Experiment in all cases: PI3K enzyme inhibitory activity in the cell free assay (ADP-Glo Kinase Assay)
Format in all cases: biochemical
PI3Kα = target: T1, PI3Kα (Homo sapiens, UniProt P42336); settings: human recombinant PI3Kα, ATP 50 μM; read-out: PI3K alpha inhibition
T1 construct: purchased Millipore Ltd (Billerica, Mass.)

PI3Kβ = target: T2, PI3Kβ (Homo sapiens, UniProt P42338); settings: human recombinant PI3Kβ, ATP 100 μM; read-out: PI3K beta inhibition
T2 construct: purchased Millipore Ltd (Billerica, Mass.)

PI3Kγ = target: T3, PI3Kγ (Homo sapiens, UniProt P48736); settings: human recombinant PI3Kγ, ATP 30 μM; read-out: PI3K gamma inhibition
T3 construct: purchased Millipore Ltd (Billerica, Mass.)

PI3Kδ = target: T4, PI3Kδ (Homo sapiens, UniProt O00329); settings: human recombinant PI3Kδ, ATP 80 μM; read-out: PI3K delta inhibition
T4 construct: purchased Millipore Ltd (Billerica, Mass.)
T4 sequence (O00329 1-1044): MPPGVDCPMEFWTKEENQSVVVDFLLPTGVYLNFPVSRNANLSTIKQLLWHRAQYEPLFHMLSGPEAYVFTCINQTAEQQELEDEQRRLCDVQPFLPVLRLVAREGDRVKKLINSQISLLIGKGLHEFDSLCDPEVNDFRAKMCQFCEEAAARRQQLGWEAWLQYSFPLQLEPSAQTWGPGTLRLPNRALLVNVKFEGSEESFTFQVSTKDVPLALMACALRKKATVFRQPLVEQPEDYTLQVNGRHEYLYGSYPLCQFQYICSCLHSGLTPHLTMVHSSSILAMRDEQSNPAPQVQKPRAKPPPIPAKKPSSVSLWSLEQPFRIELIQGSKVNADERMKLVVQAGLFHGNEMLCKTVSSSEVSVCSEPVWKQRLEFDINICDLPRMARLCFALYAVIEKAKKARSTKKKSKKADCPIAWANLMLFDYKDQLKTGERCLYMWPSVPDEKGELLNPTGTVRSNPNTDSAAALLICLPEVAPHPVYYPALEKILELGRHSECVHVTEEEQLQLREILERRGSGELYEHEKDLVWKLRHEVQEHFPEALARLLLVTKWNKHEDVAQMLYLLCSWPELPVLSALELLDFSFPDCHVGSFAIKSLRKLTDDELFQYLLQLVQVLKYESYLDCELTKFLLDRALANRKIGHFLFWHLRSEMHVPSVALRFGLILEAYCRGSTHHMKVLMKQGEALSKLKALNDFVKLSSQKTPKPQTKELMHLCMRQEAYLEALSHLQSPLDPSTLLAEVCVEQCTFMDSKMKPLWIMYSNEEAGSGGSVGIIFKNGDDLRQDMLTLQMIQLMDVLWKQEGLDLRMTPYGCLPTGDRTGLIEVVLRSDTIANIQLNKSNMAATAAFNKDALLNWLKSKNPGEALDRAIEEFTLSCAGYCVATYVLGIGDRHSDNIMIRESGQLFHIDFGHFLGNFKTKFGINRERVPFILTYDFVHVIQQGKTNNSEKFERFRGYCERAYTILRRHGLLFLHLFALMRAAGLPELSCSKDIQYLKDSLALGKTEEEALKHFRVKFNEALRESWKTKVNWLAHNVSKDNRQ

T1 sequence (P42336 whole entry): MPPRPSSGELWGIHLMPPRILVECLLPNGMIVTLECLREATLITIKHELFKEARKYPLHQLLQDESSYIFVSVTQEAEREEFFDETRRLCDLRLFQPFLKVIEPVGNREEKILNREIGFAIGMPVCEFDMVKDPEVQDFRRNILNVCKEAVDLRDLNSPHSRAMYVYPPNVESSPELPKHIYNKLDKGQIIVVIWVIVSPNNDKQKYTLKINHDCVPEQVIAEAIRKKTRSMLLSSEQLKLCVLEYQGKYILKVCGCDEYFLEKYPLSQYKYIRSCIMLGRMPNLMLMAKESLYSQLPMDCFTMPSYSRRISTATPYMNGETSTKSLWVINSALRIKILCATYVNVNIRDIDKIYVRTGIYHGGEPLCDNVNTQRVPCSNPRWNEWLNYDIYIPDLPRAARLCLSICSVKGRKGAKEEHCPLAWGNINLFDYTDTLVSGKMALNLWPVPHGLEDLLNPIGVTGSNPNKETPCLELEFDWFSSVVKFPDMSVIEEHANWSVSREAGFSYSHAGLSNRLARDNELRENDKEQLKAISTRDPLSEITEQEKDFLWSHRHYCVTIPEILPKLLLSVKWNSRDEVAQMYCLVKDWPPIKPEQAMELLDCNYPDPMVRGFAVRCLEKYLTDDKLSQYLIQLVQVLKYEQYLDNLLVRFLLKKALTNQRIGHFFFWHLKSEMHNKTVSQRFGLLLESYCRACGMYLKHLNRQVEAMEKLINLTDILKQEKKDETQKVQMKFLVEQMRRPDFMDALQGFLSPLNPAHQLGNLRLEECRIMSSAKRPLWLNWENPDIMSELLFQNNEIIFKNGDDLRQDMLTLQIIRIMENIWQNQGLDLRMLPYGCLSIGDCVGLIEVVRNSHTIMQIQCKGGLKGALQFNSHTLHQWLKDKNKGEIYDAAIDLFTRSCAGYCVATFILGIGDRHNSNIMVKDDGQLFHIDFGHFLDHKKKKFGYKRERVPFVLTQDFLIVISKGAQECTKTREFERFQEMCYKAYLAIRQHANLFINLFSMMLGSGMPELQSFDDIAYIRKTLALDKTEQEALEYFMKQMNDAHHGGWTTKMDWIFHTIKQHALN
T2 sequence (P42338 whole entry): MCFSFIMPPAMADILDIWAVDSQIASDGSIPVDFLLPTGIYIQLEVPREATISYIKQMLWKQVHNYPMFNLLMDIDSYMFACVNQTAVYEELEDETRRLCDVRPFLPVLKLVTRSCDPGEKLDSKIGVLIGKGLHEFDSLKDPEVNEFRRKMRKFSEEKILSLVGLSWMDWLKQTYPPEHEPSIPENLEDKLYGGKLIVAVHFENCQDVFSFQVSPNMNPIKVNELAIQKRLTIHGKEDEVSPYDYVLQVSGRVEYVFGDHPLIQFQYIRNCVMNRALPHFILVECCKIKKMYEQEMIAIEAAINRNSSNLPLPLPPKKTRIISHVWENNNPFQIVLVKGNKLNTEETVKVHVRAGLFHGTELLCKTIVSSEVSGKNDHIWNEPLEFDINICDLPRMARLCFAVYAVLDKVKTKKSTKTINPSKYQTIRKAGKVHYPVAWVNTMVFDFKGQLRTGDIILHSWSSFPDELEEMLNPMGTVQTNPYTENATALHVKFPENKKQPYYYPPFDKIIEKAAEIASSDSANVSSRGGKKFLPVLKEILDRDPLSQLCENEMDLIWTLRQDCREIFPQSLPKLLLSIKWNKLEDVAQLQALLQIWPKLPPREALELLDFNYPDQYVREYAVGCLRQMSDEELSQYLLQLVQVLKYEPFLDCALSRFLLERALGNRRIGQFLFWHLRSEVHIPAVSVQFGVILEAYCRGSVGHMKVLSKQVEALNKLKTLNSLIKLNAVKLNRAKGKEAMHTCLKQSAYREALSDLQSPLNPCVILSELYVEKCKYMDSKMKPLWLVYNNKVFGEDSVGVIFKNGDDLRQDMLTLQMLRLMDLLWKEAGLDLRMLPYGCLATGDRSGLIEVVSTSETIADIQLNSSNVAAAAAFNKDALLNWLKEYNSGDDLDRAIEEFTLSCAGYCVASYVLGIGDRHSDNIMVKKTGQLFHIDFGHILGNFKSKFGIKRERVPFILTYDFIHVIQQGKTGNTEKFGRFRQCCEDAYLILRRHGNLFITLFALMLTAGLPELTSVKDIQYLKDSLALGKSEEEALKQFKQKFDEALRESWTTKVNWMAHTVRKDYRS
T3 sequence (P48736 whole entry): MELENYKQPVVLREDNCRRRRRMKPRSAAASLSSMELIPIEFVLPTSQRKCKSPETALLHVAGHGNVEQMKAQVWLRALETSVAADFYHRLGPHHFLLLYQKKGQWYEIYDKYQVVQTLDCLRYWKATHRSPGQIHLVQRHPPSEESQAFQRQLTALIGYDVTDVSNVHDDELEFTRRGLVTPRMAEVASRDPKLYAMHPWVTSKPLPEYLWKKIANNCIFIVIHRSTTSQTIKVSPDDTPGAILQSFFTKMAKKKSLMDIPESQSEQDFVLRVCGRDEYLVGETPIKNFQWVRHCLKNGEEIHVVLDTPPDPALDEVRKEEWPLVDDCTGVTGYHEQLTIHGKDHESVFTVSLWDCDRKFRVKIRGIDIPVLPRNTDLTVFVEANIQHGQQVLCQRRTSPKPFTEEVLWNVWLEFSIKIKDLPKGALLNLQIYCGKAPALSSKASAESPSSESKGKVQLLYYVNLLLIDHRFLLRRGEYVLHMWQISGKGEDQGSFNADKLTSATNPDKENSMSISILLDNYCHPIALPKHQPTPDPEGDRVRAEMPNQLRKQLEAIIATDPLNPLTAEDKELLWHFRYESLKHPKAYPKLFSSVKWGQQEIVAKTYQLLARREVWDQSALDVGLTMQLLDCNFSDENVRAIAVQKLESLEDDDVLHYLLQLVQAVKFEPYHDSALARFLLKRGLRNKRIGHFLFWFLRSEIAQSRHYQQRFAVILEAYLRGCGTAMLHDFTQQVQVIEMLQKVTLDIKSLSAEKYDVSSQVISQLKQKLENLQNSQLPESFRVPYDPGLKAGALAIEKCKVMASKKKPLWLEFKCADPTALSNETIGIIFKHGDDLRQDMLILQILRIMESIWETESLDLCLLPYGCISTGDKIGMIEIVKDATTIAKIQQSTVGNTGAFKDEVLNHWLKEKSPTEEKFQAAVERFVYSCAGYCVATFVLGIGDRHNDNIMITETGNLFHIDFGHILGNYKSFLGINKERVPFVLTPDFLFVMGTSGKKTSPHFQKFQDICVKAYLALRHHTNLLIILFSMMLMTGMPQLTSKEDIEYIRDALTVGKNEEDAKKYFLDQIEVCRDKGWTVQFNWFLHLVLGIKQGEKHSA

Row | pIC50 (PI3Kα) | pIC50 (PI3Kβ) | pIC50 (PI3Kγ) | pIC50 (PI3Kδ) | Structure (SMILES)
1 | < 6.00 | 6.00 to 8.00 | < 6.00 | > 8.00 | CC(c1oc(=O)c2ccccc2c1C1=CCN(C)CC1)n1nc(-c2cc(O)cc(Cl)c2)c2c(N)ncnc21 (stereo not drawn) [Example 154, 3-(1-(4-amino-3-(3-chloro-5-hydroxyphenyl)-1H-pyrazolo[3,4-d]pyrimidin-1-yl)ethyl)-4-(1-methyl-1,2,3,6-tetrahydropyridin-4-yl)-1H-isochromen-1-one formate]
2 | < 6.00 | 6.00 to 8.00 | < 6.00 | 6.00 to 8.00 | CC(c1oc(=O)c2ccccc2c1C1=CCN(C)CC1)n1nc(-c2cc(O)cc(C(F)(F)F)c2)c2c(N)ncnc21 (stereo not drawn) [Example 155, 3-(1-(4-amino-3-(3-hydroxy-5-(trifluoromethyl)phenyl)-1H-pyrazolo[3,4-d]pyrimidin-1-yl)ethyl)-4-(1-methyl-1,2,3,6-tetrahydropyridin-4-yl)-1H-isochromen-1-one formate]
3 | < 6.00 | 6.00 to 8.00 | 6.00 to 8.00 | > 8.00 | CC(c1oc(=O)c2ccccc2c1C1=CCN(C2CNC2)CC1)n1nc(-c2cc(O)cc(F)c2)c2c(N)ncnc21 (stereo not drawn) [Example 156, 3-(1-(4-amino-3-(3-fluoro-5-hydroxyphenyl)-1H-pyrazolo[3,4-d]pyrimidin-1-yl)ethyl)-4-(1-(azetidin-3-yl)-1,2,3,6-tetrahydropyridin-4-yl)-1H-isochromen-1-one dihydrochloride]
4 | < 6.00 | 6.00 to 8.00 | 6.00 to 8.00 | > 8.00 | CC(c1oc(=O)c2ccccc2c1C1=CCN(C2CN(CC3CC3)C2)CC1)n1nc(-c2cc(O)cc(F)c2)c2c(N)ncnc21 (stereo not drawn) [Example 157, 3-(1-(4-amino-3-(3-fluoro-5-hydroxyphenyl)-1H-pyrazolo[3,4-d]pyrimidin-1-yl)ethyl)-4-(1-(1-(cyclopropylmethyl)azetidin-3-yl)-1,2,3,6-tetrahydropyridin-4-yl)-1H-isochromen-1-one dihydrochloride]
5 | < 6.00 | < 6.00 | < 6.00 | > 8.00 | CC(c1oc(=O)c2ccccc2c1-c1ccccc1)n1nc(-c2cnc(C(F)(F)F)c(O)c2)c2c(N)ncnc21 (stereo not drawn) [Example 161, 3-(1-(4-amino-3-(5-hydroxy-6-(trifluoromethyl)pyridin-3-yl)-1H-pyrazolo[3,4-d]pyrimidin-1-yl)ethyl)-4-phenyl-1H-isochromen-1-one]
6 | < 6.00 | 6.00 to 8.00 | 6.00 to 8.00 | > 8.00 | CC(c1oc(=O)c2ccc(Cl)cc2c1-c1ccccc1)n1nc(-c2cc(O)cc(F)c2)c2c(N)ncnc21 (stereo not drawn) [Example 164, 3-(1-(4-amino-3-(3-fluoro-5-hydroxyphenyl)-1H-pyrazolo[3,4-d]pyrimidin-1-yl)ethyl)-6-chloro-4-phenyl-1H-isochromen-1-one]
7 | < 6.00 | 6.00 to 8.00 | 6.00 to 8.00 | > 8.00 | CC(c1oc(=O)c2ccc(F)cc2c1-c1ccccc1)n1nc(-c2cc(O)cc(F)c2)c2c(N)ncnc21 (stereo not drawn) [Example 165, 3-(1-(4-amino-3-(3-fluoro-5-hydroxyphenyl)-1H-pyrazolo[3,4-d]pyrimidin-1-yl)ethyl)-6-fluoro-4-phenyl-1H-isochromen-1-one]
8 | < 6.00 | 6.00 to 8.00 | 6.00 to 8.00 | > 8.00 | CC(c1oc(=O)c2ccccc2c1C1=CCCN(Cc2ccccc2)C1)n1nc(-c2cc(O)cc(F)c2)c2c(N)ncnc21 (stereo not drawn) [Example 169, 3-(1-(4-amino-3-(3-fluoro-5-hydroxyphenyl)-1H-pyrazolo[3,4-d]pyrimidin-1-yl)ethyl)-4-(1-benzyl-1,2,5,6-tetrahydropyridin-3-yl)-1H-isochromen-1-one hydrochloride]
9 | 6.00 to 8.00 | 6.00 to 8.00 | 6.00 to 8.00 | > 8.00 | CC(c1oc(=O)c2ccccc2c1-c1ccccn1)n1nc(-c2cc(O)cc(F)c2)c2c(N)ncnc21 (stereo not drawn) [Example 170, 3-(1-(4-amino-3-(3-fluoro-5-hydroxyphenyl)-1H-pyrazolo[3,4-d]pyrimidin-1-yl)ethyl)-4-(pyridin-2-yl)-1H-isochromen-1-one hydrochloride]
10 | 6.00 to 8.00 | 6.00 to 8.00 | 6.00 to 8.00 | 6.00 to 8.00 | CC(c1oc(=O)c2ccccc2c1C1=CCCN(C2CCN(C)CC2)C1)n1nc(-c2cc(O)cc(F)c2)c2c(N)ncnc21 (stereo not drawn) [Example 172, 3-(1-(4-amino-3-(3-fluoro-5-hydroxyphenyl)-1H-pyrazolo[3,4-d]pyrimidin-1-yl)ethyl)-4-(1-(1-methylpiperidin-4-yl)-1,2,5,6-tetrahydropyridin-3-yl)-1H-isochromen-1-one dihydrochloride]
11 | 6.00 to 8.00 | 6.00 to 8.00 | 6.00 to 8.00 | > 8.00 | CC(c1oc(=O)c2ccccc2c1C1=CCCN(C2CNC2)C1)n1nc(-c2cc(O)cc(F)c2)c2c(N)ncnc21 (stereo not drawn) [Example 173, 3-(1-(4-amino-3-(3-fluoro-5-hydroxyphenyl)-1H-pyrazolo[3,4-d]pyrimidin-1-yl)ethyl)-4-(1-(azetidin-3-yl)-1,2,5,6-tetrahydropyridin-3-yl)-1H-isochromen-1-one dihydrochloride]
12 | 6.00 to 8.00 | 6.00 to 8.00 | 6.00 to 8.00 | 6.00 to 8.00 | CC(C)N1CCC=C(c2c(C(C)n3nc(-c4cc(O)cc(F)c4)c4c(N)ncnc43)oc(=O)c3ccccc23)C1 (stereo not drawn) [Example 174, 3-(1-(4-amino-3-(3-fluoro-5-hydroxyphenyl)-1H-pyrazolo[3,4-d]pyrimidin-1-yl)ethyl)-4-(1-isopropyl-1,2,5,6-tetrahydropyridin-3-yl)-1H-isochromen-1-one hydrochloride]
13 | 6.00 to 8.00 | > 8.00 | 6.00 to 8.00 | > 8.00 | CC(c1oc(=O)c2ccccc2c1C1=CCN(C)CC1)n1nc(-c2cncc(O)c2)c2c(N)ncnc21 (stereo not drawn) [Example 175, 3-(1-(4-amino-3-(5-hydroxypyridin-3-yl)-1H-pyrazolo[3,4-d]pyrimidin-1-yl)ethyl)-4-(1-methyl-1,2,3,6-tetrahydropyridin-4-yl)-1H-isochromen-1-one hydrochloride]
14 | < 6.00 | 6.00 to 8.00 | 6.00 to 8.00 | > 8.00 | CC(c1oc(=O)c2ccccc2c1-c1ccccc1)n1nc(I)c2c(N)ncnc21 (stereo not drawn) [Int D2, 3-(1-(4-Amino-3-iodo-1H-pyrazolo[3,4-d]pyrimidin-1-yl)ethyl)-4-phenyl-1H-isochromen-1-one]
15 | < 6.00 | < 6.00 | 6.00 to 8.00 | > 8.00 | Cc1cccc(-c2c(C(C)n3nc(I)c4c(N)ncnc43)oc(=O)c3ccccc23)c1 (stereo not drawn) [Int D3, 3-(1-(4-Amino-3-iodo-1H-pyrazolo[3,4-d]pyrimidin-1-yl)ethyl)-4-m-tolyl-1H-isochromen-1-one]
